Key:
TC-1 cells = assay: Therapeutic vaccine tumor model, subcutaneous TC-1; format: in vivo, C57BL/6 mice; conditions: E7HHH49-57 admixed with poly(I:C), up to 20 μg peptide
Excerpt: (§1) FIG. 23. Immunization with E7HHH49-57-admixed with CPQ inhibits tumor growth in a therapeutic setting more potently than poly(I:C). C57BL/6 mice were inoculated with TC-1 cells subcutaneously on day 0; then different vaccines were given 2 days post-tumor inoculation. Blood was collected 18 days post-tumor inoculation for CD8^+ T cell analyses. (A) Tumor growth of mice that vaccinated with indicated vaccine. (B) Tumor sizes of mice on day 19. (C) Survival of mice. (D) Percentage of CD8^+E749-57 tet^+ cells in the blood. Error bars show mean+/−std. dev. for n=5 per group. * p<0.05, ** p<0.01 and **** p<0.0001, analyzed by (C) long rank test or (D) one-way ANOVA with Bonferroni multiple comparisons post-test.
(§2) Since CPQ/E7HHH49-57 was effective in a prophylactic setting, we next assessed the vaccine on established TC-1 tumors, which is also the setting in which most cancer vaccines would be initially tested clinically. Poly(I:C) was used as an adjuvant comparator. For poly(I:C), the synthetic short peptide dose ranged from […] per mouse while the poly(I:C) dose remained fixed at […]. For the CPQ liposome adjuvant, the peptide dosing varied from […] per mouse. Given that the ratio of liposomes to peptide was fixed, this corresponds to a 3D6A-PHAD dose and QS-21 dose ranging from 1.6 to 0.16 μg, along with a CoPoP dose ranging from 4 to 0.4 μg. […]

[1] = tested on: E749-57 specific CD8^+ T cells; assay: E749-57 tetramer staining of CD8+ T cells in blood; format: in vivo, C57BL/6 mice; conditions: E7HHH49-57 admixed with poly(I:C), 19 days post-tumor inoculation
Excerpt: as §1, with “Blood was collected 18 days post-tumor inoculation for CD8^+ T cell analyses.” left out
as §2

[2] = tested on: AH1-specific CD8^+ T cells; assay: AH1 tetramer staining of CD8+ T cells after immunization; format: in vivo, BALB/c mice; conditions: CPQ with 1 μg total peptide, days 0 and 7, blood day 14
Description: In vivo immunization: Murine studies were performed according to protocols approved by the University at Buffalo IACUC. 5-6 week-old female BALB/c mice (Charles River Laboratories, strain BALB/cAnNCrl) were immunized intramuscularly on the right hind leg. BALB/cJ mice (Jackson Laboratories) were used in this study only for DNA sequencing where indicated.
For tetramer staining, immunized mice were analyzed for the percentages of tumor Ag-specific CD8^+ T cells by a tetramer staining assay. H-2L^d-restricted AH1 ([…]) peptide was complexed with MHC-I (H-2L^d) and conjugated with PE (the NIH Tetramer core facility). 60 μL of blood incubated with the AH1 tetramer for 1 hr at 4° C. (100× dilution), then incubated with CD8a, MHC-II (IA/IE), B220, CD4, CD44 and CD62L antibodies for 30 min at 4° C. (1000× dilution). Red blood cells were lysed by cell lysis buffer for 5 mins then cells were centrifuged at 500×g for another 5 min. The cell pellets were washed twice for flow cytometry analysis. For tetramer staining of splenocytes, 1×10^6 cells were incubated with tetramer and antibodies in the same condition as blood, and then washed twice for flow cytometry analysis. Flow cytometry studies were carried out using a BD LSRFortessam X-20 cytometer. Flowjo (version 10) software was used for data analysis.

Row | Substance | Time within which tumors of all mice reached the 1 cm endpoint (TC-1 cells) [days] | Ag-specific CD8^+ T cells in the blood [1] | CD8^+ T cells that were Ag specific (AH1 tet^+) [2]
1 | Polyinosinic:polycytidylic acid [poly(I:C)] | ≤ 60 | almost no | –
2 | SPSYVYHQF [AH1] | – | – | did not elicit detectable amount
